Test results as given in PubChem BioAssay AID256 (DTP/NCI, 2004).
Where “and” joins values, the source holds several entries; their conditions need not be identical. Equal entries are not always repeated. Toxic doses and inconclusive results are not listed. How the source made its calls: active means survival T/C of 150% or more; inactive means T/C below 125% in these data. Residues, ends and D or L forms follow the SMILES beside them. *: point of attachment. Cbz = O=C(OCc1ccccc1)*

Test system: CD2F1 mice, L1210 leukemia ip, survival T/C
Assay: NCI In Vivo Anticancer Drug Screen. Data for tumor model L1210 Leukemia (intraperitoneal) in CD2F1 (CDF1) mice
Settings: higher = longer survival
Procedure, shortened: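 Activity against a transplanted murine tumor was judged by comparing the compound group with a vehicle group. The outcome in the treated animals was divided by that in the controls.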

[1] = endpoint: mean survival time, dose: 100.0 mg/kg/injection, schedule: Q04DX003 (ip), vehicle: saline with Tween-80
[2] = endpoint: mean survival time, dose: 200.0 mg/kg/injection, schedule: Q04DX003 (ip), vehicle: saline with Tween-80
[3] = endpoint: mean survival time, dose: 400.0 mg/kg/injection, schedule: Q04DX003 (ip), vehicle: saline with Tween-80
[4] = endpoint: mean survival time, dose: 100.0 mg/kg/injection, schedule: Q01DX001 (ip), vehicle: saline with Tween-80
[5] = endpoint: mean survival time, dose: 200.0 mg/kg/injection, schedule: Q01DX001 (ip), vehicle: saline with Tween-80
[6] = endpoint: mean survival time, dose: 400.0 mg/kg/injection, schedule: Q01DX001 (ip), vehicle: saline with Tween-80
[7] = endpoint: mean survival time, dose: 100.0 mg/kg/injection, schedule: Q01DX009 (ip), vehicle: saline
[8] = endpoint: mean survival time, dose: 200.0 mg/kg/injection, schedule: Q01DX009 (ip), vehicle: saline
[9] = endpoint: mean survival time, dose: 50.0 mg/kg/injection, schedule: Q01DX009 (ip), vehicle: saline with Tween-80
[10] = endpoint: mean survival time, dose: 100.0 mg/kg/injection, schedule: Q01DX001 (ip), vehicle: Klucel (hydroxypropylcellulose) (HPC)
[11] = endpoint: mean survival time, dose: 100.0 mg/kg/injection, schedule: Q04DX003 (ip), vehicle: saline
[12] = endpoint: mean survival time, dose: 200.0 mg/kg/injection, schedule: Q04DX003 (ip), vehicle: saline
[13] = endpoint: mean survival time, dose: 100.0 mg/kg/injection, schedule: Q01DX009 (ip), vehicle: saline with Tween-80
[14] = endpoint: mean survival time, dose: 200.0 mg/kg/injection, schedule: Q01DX009 (ip), vehicle: saline with Tween-80
[15] = endpoint: mean survival time, dose: 400.0 mg/kg/injection, schedule: Q01DX009 (ip), vehicle: saline with Tween-80

Measured: T/C

CNCc1c[nH]c(=O)[nH]c1=O
inactive: [1] 102 % of control | [2] 98 % of control | [3] 94 % of control

COC1=C(c2ccccc2)/C(=C/c2ccccc2)OC1=O
inactive: [4] 104 % of control | [5] 96 % of control | [6] 93 % of control

NC1CCCCC1.[O]=[Cr](=[O])([OH])[OH]
inactive: endpoint: mean survival time, dose: 6.25 mg/kg/injection, schedule: Q04DX003 (ip), vehicle: saline 103 % of control | endpoint: mean survival time, dose: 12.5 mg/kg/injection, schedule: Q04DX003 (ip), vehicle: saline 98 % of control | endpoint: mean survival time, dose: 25.0 mg/kg/injection, schedule: Q04DX003 (ip), vehicle: saline 110 % of control

FC(F)(F)c1nn[nH]n1
inactive: [7] 100 % of control | [8] 104 % of control | endpoint: mean survival time, dose: 400.0 mg/kg/injection, schedule: Q01DX009 (ip), vehicle: saline 98 % of control

CC(=O)Nc1ccc(C(=O)CCl)cc1
inactive: [1] 90 % of control

Cc1[nH]c(=O)c(Br)cc1Br
inactive: [1] 98 % of control | [2] 101 % of control | [3] 101 % of control

COc1ccc(C(=O)C(=O)c2ccccc2Cl)cc1
inactive: endpoint: mean survival time, dose: 100.0 mg/kg/injection, schedule: Q04DX002 (ip), vehicle: saline with Tween-80 98 % of control | endpoint: mean survival time, dose: 200.0 mg/kg/injection, schedule: Q04DX002 (ip), vehicle: saline with Tween-80 102 % of control | endpoint: mean survival time, dose: 400.0 mg/kg/injection, schedule: Q04DX002 (ip), vehicle: saline with Tween-80 95 % of control

O=C(/C(=N\Nc1ccc([N+](=O)[O-])cc1)c1ccccc1)c1ccccc1
inactive: endpoint: mean survival time, dose: 12.5 mg/kg/injection, schedule: Q01DX009 (ip), vehicle: saline with Tween-80 96 % of control | endpoint: mean survival time, dose: 25.0 mg/kg/injection, schedule: Q01DX009 (ip), vehicle: saline with Tween-80 88 % of control | [9] 88 % of control | [1] 97 % of control | [2] 97 % of control | [3] 101 % of control

COC1OC2COc3ccccc3OC2C(NC(=O)Oc2ccccc2)C1O (configuration not stated)
inactive: [4] 94 % of control | [5] 94 % of control | [6] 91 % of control

CN1C(=O)NC(c2cccc(N(CCCl)CCCl)c2)C1=O (configuration not stated)
inactive: endpoint: mean survival time, dose: 25.0 mg/kg/injection, schedule: Q01DX001 (ip), vehicle: Klucel (hydroxypropylcellulose) (HPC) 116 % of control and 108 % of control | endpoint: mean survival time, dose: 50.0 mg/kg/injection, schedule: Q01DX001 (ip), vehicle: Klucel (hydroxypropylcellulose) (HPC) 120 % of control | [10] 121 % of control

c1ccc(OP(Oc2ccccc2)Oc2ccccc2)cc1
inactive: endpoint: mean survival time, dose: 50.0 mg/kg/injection, schedule: Q04DX003 (ip), vehicle: saline 98 % of control | [11] 104 % of control | [12] 96 % of control

c1ccc(C[Se]Cc2ccccc2)cc1
inactive: endpoint: mean survival time, dose: 6.25 mg/kg/injection, schedule: Q01DX009 (ip), vehicle: other 102 % of control | endpoint: mean survival time, dose: 12.5 mg/kg/injection, schedule: Q01DX009 (ip), vehicle: other 97 % of control | endpoint: mean survival time, dose: 25.0 mg/kg/injection, schedule: Q01DX009 (ip), vehicle: other 97 % of control | endpoint: mean survival time, dose: 25.0 mg/kg/injection, schedule: Q04DX003 (ip), vehicle: other 101 % of control | endpoint: mean survival time, dose: 50.0 mg/kg/injection, schedule: Q04DX003 (ip), vehicle: other 87 % of control

CCOC(=O)C1=C(C)NC(C)=C(C(=O)OCC)C1c1ccc(OC)cc1
inactive: [13] 104 % of control | [1] 97 % of control | [14] 101 % of control | [2] 94 % of control | [15] 97 % of control | [3] 92 % of control

O=C(NCCC1CCC2OC2C1)c1ccccc1 (configuration not stated)
inactive: [13] 96 % of control | [1] 107 % of control | [14] 98 % of control | [2] 100 % of control | [15] 96 % of control | [3] 94 % of control

CCc1ccc(NC(=O)c2ccc(C(=O)Nc3ccc(CC)cc3)cc2)cc1
inactive: endpoint: mean survival time, dose: 100.0 mg/kg/injection, schedule: Q01DX001 (ip), vehicle: saline 95 % of control | endpoint: mean survival time, dose: 200.0 mg/kg/injection, schedule: Q01DX001 (ip), vehicle: saline 95 % of control | endpoint: mean survival time, dose: 400.0 mg/kg/injection, schedule: Q01DX001 (ip), vehicle: saline 104 % of control

C=C1C(=O)OC2CCCCCCC12 (configuration not stated)
inactive: endpoint: mean survival time, dose: 50.0 mg/kg/injection, schedule: Q01DX009 (ip), vehicle: saline 102 % of control | [7] 97 % of control | [8] 100 % of control

Cc1cccc(OCC(=O)O)c1
inactive: [9] 97 % of control | [13] 95 % of control | [1] 95 % of control | [14] 90 % of control | [2] 93 % of control

O=C(O)CNC(=O)CNC(=O)CNC(=O)OCc1ccccc1 (Cbz-Gly-Gly-Gly-OH)
inactive: [1] 96 % of control | [2] 100 % of control | [3] 97 % of control

C[Si](C)(C)OC1(C#N)C=CC(=O)C=C1
inactive: endpoint: mean survival time, dose: 1.56 mg/kg/injection, schedule: Q01DX001 (ip), vehicle: saline with Tween-80 103 % of control | endpoint: mean survival time, dose: 3.13 mg/kg/injection, schedule: Q01DX001 (ip), vehicle: saline with Tween-80 100 % of control | endpoint: mean survival time, dose: 6.25 mg/kg/injection, schedule: Q01DX001 (ip), vehicle: saline with Tween-80 92 % of control and 95 % of control

O=C(O)COc1ccc([N+](=O)[O-])cc1
inactive: [13] 101 % of control | [14] 94 % of control | [15] 101 % of control

COC1=C(C)C(=O)C2=C(C1=O)C1C3CC4=C(C(=O)C(OC)=C(C)C4=O)C(CNC(=O)C(C)=O)N3C(C#N)C(C2)N1C (configuration not stated)
inactive: endpoint: median survival time, dose: 0.13 mg/kg/injection, schedule: Q01DX009 (ip), vehicle: Klucel (hydroxypropylcellulose) (HPC) 118 % of control | endpoint: median survival time, dose: 0.25 mg/kg/injection, schedule: Q01DX009 (ip), vehicle: Klucel (hydroxypropylcellulose) (HPC) 110 % of control | endpoint: median survival time, dose: 0.5 mg/kg/injection, schedule: Q01DX009 (ip), vehicle: Klucel (hydroxypropylcellulose) (HPC) 113 % of control and 108 % of control | endpoint: median survival time, dose: 1.0 mg/kg/injection, schedule: Q01DX009 (ip), vehicle: Klucel (hydroxypropylcellulose) (HPC) 116 % of control and 112 % of control | endpoint: median survival time, dose: 2.0 mg/kg/injection, schedule: Q01DX009 (ip), vehicle: Klucel (hydroxypropylcellulose) (HPC) 108 % of control | endpoint: median survival time, dose: 62.5 micrograms/kg/injection, schedule: Q01DX009 (ip), vehicle: Klucel (hydroxypropylcellulose) (HPC) 100 % of control | endpoint: median survival time, dose: 125.0 micrograms/kg/injection, schedule: Q01DX009 (ip), vehicle: Klucel (hydroxypropylcellulose) (HPC) 104 % of control | endpoint: median survival time, dose: 250.0 micrograms/kg/injection, schedule: Q01DX009 (ip), vehicle: Klucel (hydroxypropylcellulose) (HPC) 108 % of control | endpoint: median survival time, dose: 500.0 micrograms/kg/injection, schedule: Q01DX009 (ip), vehicle: Klucel (hydroxypropylcellulose) (HPC) 117 % of control | endpoint: median survival time, dose: 1000.0 micrograms/kg/injection, schedule: Q01DX009 (ip), vehicle: Klucel (hydroxypropylcellulose) (HPC) 122 % of control

O=C(O)C1OC1c1ccccc1 (configuration not stated)
inactive: [13] 107 % of control | [11] 91 % of control | [14] 98 % of control | [12] 100 % of control | [15] 101 % of control | endpoint: mean survival time, dose: 400.0 mg/kg/injection, schedule: Q04DX003 (ip), vehicle: saline 97 % of control

CC(CCOP(=O)(N(C)C)N(CCCl)CCCl)OCc1ccccc1 (configuration not stated)
inactive: endpoint: mean survival time, dose: 25.0 mg/kg/injection, schedule: Q01DX001 (ip), vehicle: other 101 % of control | endpoint: mean survival time, dose: 50.0 mg/kg/injection, schedule: Q01DX001 (ip), vehicle: other 102 % of control | endpoint: mean survival time, dose: 100.0 mg/kg/injection, schedule: Q01DX001 (ip), vehicle: other 98 % of control | endpoint: mean survival time, dose: 200.0 mg/kg/injection, schedule: Q01DX001 (ip), vehicle: other 87 % of control | endpoint: mean survival time, dose: 400.0 mg/kg/injection, schedule: Q01DX001 (ip), vehicle: other 95 % of control

Nc1nc2c(c(=O)[nH]1)CC(=O)N2
inactive: endpoint: median survival time, dose: 50.0 mg/kg/injection, schedule: Q01DX005 (ip), vehicle: saline 98 % of control | endpoint: median survival time, dose: 100.0 mg/kg/injection, schedule: Q01DX005 (ip), vehicle: saline 100 % of control | endpoint: median survival time, dose: 200.0 mg/kg/injection, schedule: Q01DX005 (ip), vehicle: saline 104 % of control

O=C1OC(=O)C2=C1C1C3C=CCC3C2N2C=CC=CC12 (configuration not stated)
inactive: [10] 105 % of control | endpoint: mean survival time, dose: 200.0 mg/kg/injection, schedule: Q01DX001 (ip), vehicle: Klucel (hydroxypropylcellulose) (HPC) 93 % of control
